Results from patent US20080119412A1, “Polypeptides for Modulating Binding of Trp Channel Proteins and Trp- Associated Proteins” (NoNO Inc., priority 2003, published 2008).
Residues, ends and D or L forms follow the SMILES beside them. No end group written: not given here. *: point of attachment. Biotin = O=C1N[C@H]2[C@H](CS[C@H]2CCCCC(=O)*)N1

Experiments:
ZO-1 d2 = molecular target: T1, ZO-1 d2 (Homo sapiens, UniProt Q07157, DEL264-264); assay: G3 assay titration, GST-PDZ fusion / biotinylated peptide; assay type: binding
T1 construct: made in house; host or cells: E. coli (DH5alpha, BL21 or JM109)
T1 sequence (Q07157 with tags, fused parts or gaps DEL264-264): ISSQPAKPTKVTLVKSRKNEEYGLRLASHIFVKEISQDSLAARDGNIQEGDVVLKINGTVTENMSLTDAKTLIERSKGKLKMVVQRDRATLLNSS
Protocol: (§1) The G3 assay is identical to the G0 assay with the following exceptions. The peptides are typically present at 0.1 μM rather than 20 μM. The peptides are also pre-incubated with the HRP-streptavidin prior to adding to the assay plate. In the G0 assay, free peptide is incubated with the PDZ proteins prior to the addition of the HRP-streptavidin. Thus, for the G0 assay one can lose signal if the bound peptide dissociates from the PDZ protein prior to the addition of the HRP-streptavidin. In the G3 modified assay the HRP-streptavidin/peptide complex is added to the plate in one step, thus increasing the likelihood that all the bound peptide will be bound to HRP-streptavidin. The G3 modified assay increases the chance of observing weak interactions.
(§2) This example describes assays to identify binding between TRPM7 and PDZ domains. GST-PDZ fusions are produced that each contain an entire PDZ domain (or multiple PDZ domains), the collection encompassing approximately 90% of all PDZ domains identified in the human genome. (See Table 5 and Section V (PDZ Proteins and PL Protein Interactions Disclosure). Biotinylated peptide corresponding to 11 residues of Tat coupled to the C-terminal 9 amino acids of TRPM7 ([…]; SEQ ID NO:258) is synthesized and purified by HPLC.
(§3) • Nunc MaxiSorp 96 well Immuno-plate, Nunc • PBS pH 7.4 (phosphate buffered saline, 8 g NaCl, 0.29 g KCl, 1.44 g Na2HPO4, 0.24 g KH2PO4, add H2O to 1 liter and pH 7.4; 0.2 μm filter) • Assay Buffer: 2% BSA in PBS (20 g of bovine serum albumin per liter PBS, fraction V, ICN Biomedicals, cat#IC15142983 • Goat anti-GST polyclonal Ab, stock 5 mg/ml, stored at 4° C., Amersham Pharmacia cat#27-4577-01 • Dilute 1:1000 in PBS, final concentration 5 μg/ml. • HRP-Streptavidin, 2.5 mg/2 ml stock stored at 4° C., Zymed cat#43-4323, dilute 1:2000 into Assay buffer, final concentration of […] • Wash Buffer, PBS • Biotinylated peptides (HPLC purified, stock solution stored in −20° C. freezer) • GST-PRISM proteins (stock stored at −80° C., after 1st thaw store in −10° C. freezer) • TMB (3,3′,5,5′, teramethylbensidine), tablets, Sigma cat.#T5525 • Per plate, dissolve 1 tablet in 1 ml DMSO, add 9 ml Citrate/Phosphate buffer pH 5.4 and 2 μL H2O2 • 0.1 M H2SO4, Sigma cat.#S1526 • 12-w multichannel pipettor & tips • 50 ml reagent reservoirs, Costar#4870 • 50, 15 ml polypropylene conical tubes • Costar Transtar 96 Costar #7605 • Transtar 96 Cartridge Costar #7610 • Molecular Devices microplate reader (450 & 650 nm filters) with SoftMax Pro software *When using reagents stored at or 4° C. or −20° C., remove & keep on ice
(§4) • 1. Coat plate with 100 μl of 5 μg/ml anti-GST, overnight at 4° C. • 2. Dump contents of plate & out tap dry on paper towels • 3. Block with 200 μl Assay Buffer for 2 hrs at room temperature • 4. Prepare proteins at 5 μg/ml in Assay Buffer • 5. Wash 3× with cold PBS (4° C.), avoiding letting the plates dry out • 6. Add proteins at 50 μl per well, incubate 1 to 2 hrs at 4° C. • 7. Prepare peptides to desired concentration in Assay Buffer • 8. Wash 3× with cold PBS (4° C.), avoiding letting the plates dry out • 9. Add HRP-Streptavidin/peptide complex [prepared by incubating for 20 minutes at room temperature HRP-Streptavidin (1:2000) with the desired biotin-peptide concentration for 20 minutes at room temperature] at 50 μl per well on ice • 10. Place at room temperature for exactly 30 minutes • 11. Promptly wash 5× with PBS at room temperature • 12. Add 100 μl/well TMB substrate (write time on plate) • 13. Incubate in dark at room temperature for a maximum of 30 minutes • 14. Read plate at 25 minutes (650 nm), optional • 15. Stop reaction with 100 μl of 0.18 M H2SO4, 30 minutes after adding TMB • Take last reading at 450 nm soon after stopping reaction
(§5) The G3 assay was performed using 0.1 μM peptide representing 11 amino acids of Tat fused to the final 9 amino acids of TRPM7 ([…]; SEQ ID NO:258). […]

INADL d3 = molecular target: T2, INADL d3 (Homo sapiens, UniProt Q8NI35); assay: as above; assay type: binding
T2 construct: made in house; host or cells: E. coli (DH5alpha, BL21 or JM109)
T2 sequence (Q8NI35 with tags, fused parts or gaps): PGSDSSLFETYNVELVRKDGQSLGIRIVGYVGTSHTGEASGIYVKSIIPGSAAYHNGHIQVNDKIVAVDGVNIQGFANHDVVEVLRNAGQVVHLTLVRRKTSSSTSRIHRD
Protocol: as §1, §2, §3, §4, §5

For CC[C@H](C)[C@H](NC(=O)[C@@H](NC(=O)[C@H](CCCNC(=N)N)NC(=O)[C@H](CC(=O)O)NC(=O)[C@H](CO)NC(=O)[C@H](CCCNC(=N)N)NC(=O)[C@H](C)NC(=O)[C@H](CCCNC(=N)N)NC(=O)[C@H](CCCNC(=N)N)NC(=O)[C@H](CCCNC(=N)N)NC(=O)[C@H](CCC(N)=O)NC(=O)[C@H](CCCNC(=N)N)NC(=O)[C@H](CCCNC(=N)N)NC(=O)[C@H](CCCCN)NC(=O)[C@H](CCCCN)NC(=O)[C@H](CCCNC(=N)N)NC(=O)CNC(=O)[C@H](Cc1ccc(O)cc1)NC(=O)CCCC[C@@H]1SC[C@@H]2NC(=O)N[C@@H]21)[C@@H](C)O)C(=O)N[C@H](C(=O)N[C@@H](C)C(=O)O)[C@@H](C)CC [Peptide 1830] (Biotin-YGRKKRRQRRRARSDRTIIA-OH), the EC50 (ZO-1 d2) was less than 20 nM and the EC50 (INADL d3) was less than 2000 nM.
Work on CC(C)[C@H](NC(=O)[C@H](CCC(=O)O)NC(=O)[C@@H](NC(=O)[C@H](CCCCN)NC(=O)[C@H](CCCNC(=N)N)NC(=O)[C@H](CC(=O)O)NC(=O)[C@@H](NC(=O)[C@H](CCCNC(=N)N)NC(=O)[C@H](C)NC(=O)[C@H](CCCNC(=N)N)NC(=O)[C@H](CCCNC(=N)N)NC(=O)[C@H](CCCNC(=N)N)NC(=O)[C@H](CCC(N)=O)NC(=O)[C@H](CCCNC(=N)N)NC(=O)[C@H](CCCNC(=N)N)NC(=O)[C@H](CCCCN)NC(=O)[C@H](CCCCN)NC(=O)[C@H](CCCNC(=N)N)NC(=O)CNC(=O)[C@H](Cc1ccc(O)cc1)NC(=O)CCCC[C@@H]1SC[C@@H]2NC(=O)N[C@@H]21)[C@@H](C)O)C(C)C)C(=O)O [Peptide 1837] (Biotin-YGRKKRRQRRRARTDRKVEV-OH) yielded an EC50 (ZO-1 d2) of less than 20 nM.
In the case of CC[C@H](C)[C@H](NC(=O)[C@H](Cc1ccc(O)cc1)NC(=O)[C@H](CCCCN)NC(=O)[C@H](CCCNC(=N)N)NC(=O)[C@H](CC(=O)O)NC(=O)CNC(=O)[C@H](CCCNC(=N)N)NC(=O)[C@H](C)NC(=O)[C@H](CCCNC(=N)N)NC(=O)[C@H](CCCNC(=N)N)NC(=O)[C@H](CCCNC(=N)N)NC(=O)[C@H](CCC(N)=O)NC(=O)[C@H](CCCNC(=N)N)NC(=O)[C@H](CCCNC(=N)N)NC(=O)[C@H](CCCCN)NC(=O)[C@H](CCCCN)NC(=O)[C@H](CCCNC(=N)N)NC(=O)CNC(=O)[C@H](Cc1ccc(O)cc1)NC(=O)CCCC[C@@H]1SC[C@@H]2NC(=O)N[C@@H]21)C(=O)N[C@H](C(=O)O)C(C)C [Peptide 1838] (Biotin-YGRKKRRQRRRARGDRKYIV-OH), the EC50 (ZO-1 d2) is reported as less than 100 nM and the EC50 (INADL d3) is reported as less than 100 nM.
In the case of CC(C)[C@H](NC(=O)[C@@H]1CCCN1C(=O)[C@@H](NC(=O)[C@H](CCCCN)NC(=O)[C@H](CCCNC(=N)N)NC(=O)[C@H](CC(=O)O)NC(=O)CNC(=O)[C@H](CCCNC(=N)N)NC(=O)[C@H](C)NC(=O)[C@H](CCCNC(=N)N)NC(=O)[C@H](CCCNC(=N)N)NC(=O)[C@H](CCCNC(=N)N)NC(=O)[C@H](CCC(N)=O)NC(=O)[C@H](CCCNC(=N)N)NC(=O)[C@H](CCCNC(=N)N)NC(=O)[C@H](CCCCN)NC(=O)[C@H](CCCCN)NC(=O)[C@H](CCCNC(=N)N)NC(=O)CNC(=O)[C@H](Cc1ccc(O)cc1)NC(=O)CCCC[C@@H]1SC[C@@H]2NC(=O)N[C@@H]21)C(C)C)C(=O)O [Peptide 1841] (Biotin-YGRKKRRQRRRARGDRKVPV-OH), the EC50 (ZO-1 d2) is reported as less than 20 nM.
Compound CC(C)C[C@H](NC(=O)[C@H](CCCNC(=N)N)NC(=O)[C@@H](NC(=O)CNC(=O)[C@H](CCCNC(=N)N)NC(=O)[C@H](C)NC(=O)[C@H](CCCNC(=N)N)NC(=O)[C@H](CCCNC(=N)N)NC(=O)[C@H](CCCNC(=N)N)NC(=O)[C@H](CCC(N)=O)NC(=O)[C@H](CCCNC(=N)N)NC(=O)[C@H](CCCNC(=N)N)NC(=O)[C@H](CCCCN)NC(=O)[C@H](CCCCN)NC(=O)[C@H](CCCNC(=N)N)NC(=O)CNC(=O)[C@H](Cc1ccc(O)cc1)NC(=O)CCCC[C@@H]1SC[C@@H]2NC(=O)N[C@@H]21)[C@@H](C)O)C(=O)N[C@H](C(=O)N[C@@H](Cc1c[nH]c2ccccc12)C(=O)N[C@H](C(=O)O)C(C)C)C(C)C [Peptide 1844] (Biotin-YGRKKRRQRRRARGTRLVWV-OH) has an EC50 (ZO-1 d2) of less than 20 nM and an EC50 (INADL d3) of less than 20 nM.
For CC[C@H](C)[C@H](NC(=O)[C@H](CCCNC(=N)N)NC(=O)[C@H](Cc1ccc(O)cc1)NC(=O)[C@H](CCCNC(=N)N)NC(=O)[C@H](CC(=O)O)NC(=O)CNC(=O)[C@H](CCCNC(=N)N)NC(=O)[C@H](C)NC(=O)[C@H](CCCNC(=N)N)NC(=O)[C@H](CCCNC(=N)N)NC(=O)[C@H](CCCNC(=N)N)NC(=O)[C@H](CCC(N)=O)NC(=O)[C@H](CCCNC(=N)N)NC(=O)[C@H](CCCNC(=N)N)NC(=O)[C@H](CCCCN)NC(=O)[C@H](CCCCN)NC(=O)[C@H](CCCNC(=N)N)NC(=O)CNC(=O)[C@H](Cc1ccc(O)cc1)NC(=O)CCCC[C@@H]1SC[C@@H]2NC(=O)N[C@@H]21)C(=O)N[C@H](C(=O)O)C(C)C [Peptide 1845] (Biotin-YGRKKRRQRRRARGDRYRIV-OH), the EC50 (ZO-1 d2) was less than 100 nM and the EC50 (INADL d3) was less than 100 nM.
CC[C@H](C)[C@H](NC(=O)[C@@H](NC(=O)[C@H](CCCNC(=N)N)NC(=O)[C@H](CC(=O)O)NC(=O)CNC(=O)[C@H](CCCNC(=N)N)NC(=O)[C@H](C)NC(=O)[C@H](CCCNC(=N)N)NC(=O)[C@H](CCCNC(=N)N)NC(=O)[C@H](CCCNC(=N)N)NC(=O)[C@H](CCC(N)=O)NC(=O)[C@H](CCCNC(=N)N)NC(=O)[C@H](CCCNC(=N)N)NC(=O)[C@H](CCCCN)NC(=O)[C@H](CCCCN)NC(=O)[C@H](CCCNC(=N)N)NC(=O)CNC(=O)[C@H](Cc1ccc(O)cc1)NC(=O)CCCC[C@@H]1SC[C@@H]2NC(=O)N[C@@H]21)[C@@H](C)O)C(=O)N[C@H](C(=O)N[C@@H](Cc1ccc(O)cc1)C(=O)O)[C@@H](C)CC [Peptide 1848] (Biotin-YGRKKRRQRRRARGDRTIIY-OH) gave an EC50 (ZO-1 d2) of less than 20 nM and an EC50 (INADL d3) of less than 2000 nM.
CC(C)[C@H](NC(=O)[C@H](Cc1c[nH]c2ccccc12)NC(=O)[C@@H](NC(=O)[C@H](CCC(=O)O)NC(=O)[C@H](CCCNC(=N)N)NC(=O)[C@H](CCCNC(=N)N)NC(=O)CNC(=O)[C@H](CCCNC(=N)N)NC(=O)[C@H](C)NC(=O)[C@H](CCCNC(=N)N)NC(=O)[C@H](CCCNC(=N)N)NC(=O)[C@H](CCCNC(=N)N)NC(=O)[C@H](CCC(N)=O)NC(=O)[C@H](CCCNC(=N)N)NC(=O)[C@H](CCCNC(=N)N)NC(=O)[C@H](CCCCN)NC(=O)[C@H](CCCCN)NC(=O)[C@H](CCCNC(=N)N)NC(=O)CNC(=O)[C@H](Cc1ccc(O)cc1)NC(=O)CCCC[C@@H]1SC[C@@H]2NC(=O)N[C@@H]21)[C@@H](C)O)C(=O)O [Peptide 1854] (Biotin-YGRKKRRQRRRARGRRETWV-OH) gave an EC50 (INADL d3) of less than 20 nM.
For “Biotin-YGRKKRRQRRRSRTDRLEYV [Peptide 1846]”, the “ODmax (450 nm)” value (INADL d3; Table 10, titration of peptides with INADL d3) was 1.50.
